Broadly, the IC50 is the midpoint of a concentration-inhibition curve.

We go through four compounds from patent US20230159593A1, “CY[…]” (priority 2020, published 2023).

Where two headings read alike, the source gives them in different places.

The test system of one assay is IRF1 target genes. The assay is classed as cell-based, Homo sapiens. The conditions noted are these: HCV-replicating Huh7 cells, 5 μM, 48 hpe.
The next assay relates to IFN-β mRNA. Format: cell-based, Homo sapiens. The conditions noted are these: HCV-replicating Huh7 cells, 5 μM, 48 h.
A further assay has as its system HIV-1 (GFP). As to the kind of experiment: Infection of U87 cells with HIV-1 (GFP), titration of inhibitors. The assay is classed as cell-based. The note with it: for IC50: Human immunodeficiency virus 1, U-87 MG; for Potency relative to CsA: U87 cells, HIV-1 (GFP). The method, then: FIG. 27: As explained in Example 3, this figure illustrates: in panel A, infection of U87 cells with HIV-1 (GFP), with a titration of inhibitors from 10 μm-0.04 μM (n=2±SEM), the vertical axis in each graph representing infectivity as a % of DMSO control; in panel B, Western blot of CypA in Huh7 cells 48 hrs after treatment with and without JW4-10.
Also used as a control in the experiments (see FIG. 27A) was SmBz ([Sarcosine-3(4-methylbenzoate)]-CsA). SmBz is disclosed in Malouitre et al. Biochem J. 2009 Dec. 14; 425(1):137-48. The anti HIV activity of SmBz is described in Rasaiyaah et al. Nature, 2013. 503(7476): p. 402-5.

Assay [1] concerns HCV replication organelle (DMVs). Format: cell-based, Homo sapiens. The conditions noted are these: 5×EC90, 24 hours post-transfection.
For the next assay, the target named is T1, CypD (Homo sapiens, UniProt P30405).
T1 construct: endogenous in cells; host or cells: Huh7 cells
The assay is classed as cell-based. The note with it: Huh7 cells, 1 μM, 24 hours.

A further assay deals with T2, CypB (Homo sapiens, UniProt P23284).
T2 construct: endogenous in cells; host or cells: Huh7 cells
Format: cell-based. The note with it: Huh7 cells, 1 μM.

The next assay addresses T3, CypA (Homo sapiens, UniProt P62937).
T3 construct: endogenous in cells; host or cells: Huh7 and Huh7.5 cells
The assay is classed as cell-based.

The next assay deals with HCV replication (SGR). The assay can be described thus: microbe, parasite or virus in culture. The assay is classed as cell-based. The conditions noted are these: Hepatitis C virus.
Another assay relates to HCVcc (J6/JFH1-RLuc). The assay can be described thus: microbe, parasite or virus in culture. Format: cell-based, Hepatitis C Virus. The note with it: for IC50: Hepatitis C virus; for Effect on HCVcc infection at single dose: 72 h.
Where [2] appears, read: Huh7.5, Huh7.5, read-out: IC50 Replication (SGR).
Where [3] appears, read: Huh7.5-CTRL, read-out: IC50 Replication (SGR).
[4] abbreviates: Huh-7, Huh7, read-out: IC50 Replication (SGR).
Where [5] appears, read: Huh-7, Huh7 MAVS KO, read-out: IC50 Replication (SGR).
The mark [6] stands for this setting: Huh-7, Huh7 NT c7, read-out: IC50 Replication (SGR).
[7] abbreviates: Huh-7, read-out: IC50 Replication (SGR), Huh7 MAVS KO + C508R.
Where [8] appears, read: Huh7.5, read-out: IC50 HCVcc infection, Huh7.5.
[9] abbreviates: Huh-7, read-out: IC50 HCVcc infection, Huh7 NT c7.

T3 sequence (P62937 whole entry): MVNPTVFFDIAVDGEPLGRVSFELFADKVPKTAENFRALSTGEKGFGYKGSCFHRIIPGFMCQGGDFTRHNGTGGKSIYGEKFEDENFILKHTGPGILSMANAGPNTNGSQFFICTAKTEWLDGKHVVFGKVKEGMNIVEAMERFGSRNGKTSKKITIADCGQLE
T2 sequence (P23284 34-216): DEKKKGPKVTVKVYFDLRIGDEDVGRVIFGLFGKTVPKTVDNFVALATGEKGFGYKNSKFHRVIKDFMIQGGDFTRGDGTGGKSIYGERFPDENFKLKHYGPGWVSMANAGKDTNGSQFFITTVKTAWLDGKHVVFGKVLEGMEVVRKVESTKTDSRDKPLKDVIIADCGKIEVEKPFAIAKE
T1 sequence (P30405 30-207): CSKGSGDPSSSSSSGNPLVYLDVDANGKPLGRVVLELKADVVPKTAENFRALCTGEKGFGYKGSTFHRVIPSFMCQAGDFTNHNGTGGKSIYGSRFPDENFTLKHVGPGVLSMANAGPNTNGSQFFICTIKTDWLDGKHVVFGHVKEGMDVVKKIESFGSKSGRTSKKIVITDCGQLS

Consider `CC[C@@H]1NC(=O)[C@H]([C@H](O)[C@H](C)C/C=C/CCCCC(=O)N[C@H](C(=O)N2C[C@H](O)C[C@H]2C(=O)N[C@@H](C)c2ccc(-c3scnc3C)cc2)C(C)(C)C)N(C)C(=O)[C@H](C(C)C)N(C)C(=O)[C@H](CC(C)C)N(C)C(=O)[C@H](CC(C)C)N(C)C(=O)[C@@H](C)NC(=O)[C@H](C)NC(=O)[C@H](CC(C)C)N(C)C(=O)[C@H](C(C)C)NC(=O)[C@H](CC(C)C)N(C)C(=O)CN(C)C1=O` [CsA-Prtc1, [Gly-(1S,2R,E)-10-amido (E3 ligase ligand)-1-hydroxy-2-methyloct-4-ene]^1 CsA], for which the “Induction of IRF1 target gene expression” value with IRF1 target genes was “did not induce expression of IRF1 target genes”. Besides, the “Induction of IFN-β expression” value in the assay with IFN-β mRNA is “not”. The IC50 in the assay with HIV-1 (GFP) came to 90 ± 130 nM; in the assay on HCV replication (SGR) (setting [2]), 55 ± 7 nM; in the assay on HCV replication (SGR) (setting [3]) it was 70 ± 13 nM; in the assay with HCV replication (SGR) (setting [4]), 16 ± 2 nM; in the assay on HCV replication (SGR) (setting [5]), 10 ± 1 nM; in the assay on HCV replication (SGR) (setting [6]), 9 ± 1 nM. Also, the IC50 in the assay on HCV replication (SGR) (setting [7]) was determined as 8 ± 1 nM; in the assay on HCVcc (J6/JFH1-RLuc) (setting [8]), 14 ± 3 nM; in the assay with HCVcc (J6/JFH1-RLuc) (Huh-7, read-out: IC50 HCVcc infection, Huh7), 3 ± 1 nM; in the assay with HCVcc (J6/JFH1-RLuc) (setting [9]) it was 12 ± 2 nM. Moreover, the “Number and size of DMVs” value in assay [1] is “significant reduction in the number and size of DMVs”. At CypD, the CypD protein expression result was “minimal impact”. Besides, the values for the CypB protein expression result at CypB (24 hours) and on CypB (48 hours) were “minimal impact” and “CypB degradation was observed”, respectively. In addition, the “Proteasome dependence of CypA degradation” value at CypA (1 μM with or without MG132 (10 μM), 24 hours) was “proteasome-dependent”. Moreover, the CypA degradation entry on CypA (Huh7 and Huh7.5 cells, 1 μM, 48 h) was “degradation of CypA”; at CypA (Huh7 cells, 48 hrs after treatment (FIG. 27B)), “degradation of CypA”. Besides, the “Effect on HCVcc infection at single dose” value with HCVcc (J6/JFH1-RLuc) (Huh7, 1 μM) is “completely inhibited HCVcc infection”; in the assay with HCVcc (J6/JFH1-RLuc) (Huh7.5, 1 μM), “completely inhibited HCVcc infection”.

Consider `CC[C@@H]1NC(=O)[C@H]([C@H](O)[C@H](C)C/C=C/CCCn2ccnc2)N(C)C(=O)[C@H](C(C)C)N(C)C(=O)[C@H](CC(C)C)N(C)C(=O)[C@H](CC(C)C)N(C)C(=O)[C@@H](C)NC(=O)[C@H](C)NC(=O)[C@H](CC(C)C)N(C)C(=O)[C@H](C(C)C)NC(=O)[C@H](CC(C)C)N(C)C(=O)CN(C)C1=O` [CsA-like, [Gly-(1S,2R,E)-8-(1H-imidazole-1-yl)-1-hydroxy-2-methyloct-4-ene]^1 CsA], for which the “Induction of IFN-β expression” value in the assay on IFN-β mRNA is recorded as “capable of inducing IFN-β expression”. For the same compound, the 50% inhibitory concentration (IC50) is 1370 ± 197 nM with HCV replication (SGR) (setting [2]); 527 ± 154 nM in the assay with HCV replication (SGR) (setting [3]); 950 ± 247 nM with HCV replication (SGR) (Huh7.5-Mda5, read-out: IC50 Replication (SGR)); 1230 ± 298 nM with HCV replication (SGR) (Huh7.5-RIG-I/Mda5, read-out: IC50 Replication (SGR)); 686 ± 181 nM with HCV replication (SGR) (Huh7.5-RIG-I, read-out: IC50 Replication (SGR)); 266 ± 37 nM in the assay with HCV replication (SGR) (setting [4]). Besides, the 50% inhibitory concentration (IC50) in the assay on HCV replication (SGR) (Huh-7, Huh7 IRF1 KO c10, read-out: IC50 Replication (SGR)) was determined as 1220 ± 224 nM; in the assay on HCV replication (SGR) (Huh-7, Huh7 IRF1 KO c11, read-out: IC50 Replication (SGR)), 1590 ± 284 nM; in the assay on HCV replication (SGR) (setting [5]), 160 ± 23 nM; in the assay with HCV replication (SGR) (setting [6]), 184 ± 26 nM; in the assay on HCV replication (SGR) (Huh-7, Huh7 PKR KO c1, read-out: IC50 Replication (SGR)), 971 ± 186 nM; in the assay on HCV replication (SGR) (Huh-7, Huh7 PKR KO c4, read-out: IC50 Replication (SGR)), 1250 ± 327 nM. Further, the IC50 with HCV replication (SGR) (setting [7]) turned out to be 141 ± 28 nM; in the assay on HCVcc (J6/JFH1-RLuc) (setting [8]) it was 316 ± 83 nM; with HCVcc (J6/JFH1-RLuc) (setting [9]), 123 ± 23 nM; with HCVcc (J6/JFH1-RLuc) (Huh-7, read-out: IC50 HCVcc infection, Huh7 PKR KO c4), 433 ± 101 nM.

For the compound `CC[C@@H]1NC(=O)[C@H]([C@H](O)[C@H](C)C/C=C/CCOCCOCCOCCN[C@H](C(=O)N2C[C@H](O)C[C@H]2C(=O)N[C@@H](C)c2ccc(-c3scnc3C)cc2)C(C)(C)C)N(C)C(=O)[C@H](C(C)C)N(C)C(=O)[C@H](CC(C)C)N(C)C(=O)[C@H](CC(C)C)N(C)C(=O)[C@@H](C)NC(=O)[C@H](C)NC(=O)[C@H](CC(C)C)N(C)C(=O)[C@H](C(C)C)NC(=O)[C@H](CC(C)C)N(C)C(=O)CN(C)C1=O` [JW4-20], in the assay with HIV-1 (GFP), it took 120 ± 50 nM to reach half-maximal inhibition (IC50) and the “Potency relative to CsA” value was “increased potency”.

In the case of `CC[C@@H]1NC(=O)[C@H]([C@H](O)[C@H](C)C/C=C/CCCN2CCN(CC(=O)N[C@H](C(=O)N3C[C@H](O)C[C@H]3C(=O)N[C@@H](C)c3ccc(-c4scnc4C)cc3)C(C)(C)C)CC2)N(C)C(=O)[C@H](C(C)C)N(C)C(=O)[C@H](CC(C)C)N(C)C(=O)[C@H](CC(C)C)N(C)C(=O)[C@@H](C)NC(=O)[C@H](C)NC(=O)[C@H](CC(C)C)N(C)C(=O)[C@H](C(C)C)NC(=O)[C@H](CC(C)C)N(C)C(=O)CN(C)C1=O` [JW4-21], in the assay on HIV-1 (GFP), the midpoint of inhibition, the IC50, lay at 700 ± 80 nM and the “Potency relative to CsA” value was “decreased potency”.
